Measured values reported in patent US8871722B2, “Perhydrolase epitopes” (Danisco US Inc., priority 2005, dated 2014).

System: human CD4+ T-cells

QLIFEGGEQKTTELA (listed as Mycobacterium smegmatis) [SEQ ID NO:53]
identification of peptide T-cell epitope (significant response in donor pool) (5 μM peptide, human donors): one peptide of interest was identified

tetanus toxoid [reference compound]
positive control proliferative response (tetanus toxoid at approximately 5 Lf/mL): robust positive control responses

B1: perhydrolase: wild-type M. smegmatis perhydrolase enzyme, amino acid sequence SEQ ID NO:2 (protein, listed as Mycobacterium smegmatis)
chain: MAKRILCFGDSLTWGWVPVEDGAPTERFAPDVRWTGVLAQQLGADFEVIEEGLSARTTNIDDPTDPRLNGASYLPSCLATHLPLDLVIIMLGTNDTKAYFRRTPLDIALGMSVLVTQVLTSAGGVGTTYPAPKVLVVSPPPLAPMPHPWFQLIFEGGEQKTTELARVYSALASFMKVPFFDAGSVISTDGVDGIHFTEANNRDLGVALAEQVRSLL
structure index value (relative immunogenicity) (scale 0 to 2, the closer to 2.0 the more immunogenic): < 0.5
